For 18 compounds, EC50 results are on record in patent publication US12577206B2 (BRISTOL-MYERS SQUIBB COMPANY, priority 2020, dated 2026).

For one test, the target named is T1, human FPR2 (Homo sapiens, UniProt P25090).
T1 sequence (P25090 1-351): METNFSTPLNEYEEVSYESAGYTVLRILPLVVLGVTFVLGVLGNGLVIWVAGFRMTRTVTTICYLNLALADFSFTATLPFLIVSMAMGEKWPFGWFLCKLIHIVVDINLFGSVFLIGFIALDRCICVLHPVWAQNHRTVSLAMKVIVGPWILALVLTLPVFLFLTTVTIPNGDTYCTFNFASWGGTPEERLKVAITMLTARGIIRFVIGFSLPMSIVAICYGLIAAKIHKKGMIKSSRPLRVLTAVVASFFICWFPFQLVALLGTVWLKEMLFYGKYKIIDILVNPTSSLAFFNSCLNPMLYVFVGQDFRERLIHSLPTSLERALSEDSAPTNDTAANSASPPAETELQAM
Description: FPR2 cyclic adenosine monophosphate (cAMP) assay. In kind it is cell-based. To be noted: CHO cells overexpressing human FPR2; forskolin 5 μM; inhibition of cAMP production; HTRF; read-out: hFPR2 cAMP2 EC50. The gist of the method:
(§1)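 CHO/hFPR1 4,000 cells/well, forskolin 10 μM final; CHO/hFPR2 2,000 cells/well, forskolin 5 μM final. IBMX 200 μM, DMSO 1%, DPBS + Ca/Mg + 0.1% BSA, 30 min rt. HTRF cAMP; 4-PL fit.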
(In general: Cyclic AMP is a second messenger, typically raised through Gs and lowered through Gi signalling.)

The target in another test is T2, human FPR1 (Homo sapiens, UniProt P21462).
T2 sequence (P21462 1-350): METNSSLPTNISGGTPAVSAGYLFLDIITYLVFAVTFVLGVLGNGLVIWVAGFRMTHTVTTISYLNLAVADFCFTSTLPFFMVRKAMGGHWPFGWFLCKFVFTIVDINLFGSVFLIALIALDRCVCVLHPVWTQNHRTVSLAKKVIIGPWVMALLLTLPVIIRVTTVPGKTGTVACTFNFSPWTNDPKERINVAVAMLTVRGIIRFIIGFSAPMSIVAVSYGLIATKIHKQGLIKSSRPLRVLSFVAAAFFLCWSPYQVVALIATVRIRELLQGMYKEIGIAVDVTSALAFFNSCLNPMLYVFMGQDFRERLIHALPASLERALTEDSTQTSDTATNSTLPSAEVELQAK
As to the kind of experiment: FPR1 cyclic adenosine monophosphate (cAMP) assay. To be noted: CHO cells overexpressing human FPR1; forskolin 10 μM; inhibition of cAMP production; HTRF; read-out: hFPR1 cAMP2 EC50. In kind it is cell-based. The gist of the method: as §1

Structures are written as SMILES.

For orientation: EC50 means the midpoint of the concentration-response curve. As for `COc1cc(C2CCCN(CCO)C2)nc(-n2c(=O)c(NC(=O)c3ccc(OC(F)F)cc3)c(-c3c(F)cc(OC)cc3F)n2C)c1` (stereo not drawn) [Example 338, N-(5-(2,6-Difluoro-4-methoxyphenyl)-2-(6-(1-(2-hydroxyethyl)piperidin-3-yl)-4-methoxypyridin-2-yl)-1-methyl-3-oxo-2,3-dihydro-1H-pyrazol-4-yl)-4-(difluoromethoxy)benzamide], the concentration for a half-maximal effect (EC50) at human FPR2 is 0.002 µM; on human FPR1, more than 10 µM.

In the case of `COc1cc(OCC2CCCO2)nc(-n2c(=O)c(NC(=O)c3ccc(OC(F)F)cc3)c(-c3c(F)cc(OC)cc3F)n2C)c1` (stereo not drawn) [Example 339, N-(5-(2,6-Difluoro-4-methoxyphenyl)-2-(4-methoxy-6-((tetrahydrofuran-2-yl)methoxy)pyridin-2-yl)-1-methyl-3-oxo-2,3-dihydro-1H-pyrazol-4-yl)-4-(difluoromethoxy)benzamide], the concentration for a half-maximal effect (EC50) at human FPR2 is 0.008 µM; on human FPR1, more than 10 µM.

Turning to `COc1cc(C2CCCN(CCO)C2)nc(-n2c(=O)c(NC(=O)c3ccc(OC(F)F)cc3)c(-c3c(F)cc(OC)cc3F)n2C)c1` (stereo not drawn) [Example 340, N-(5-(2,6-Difluoro-4-methoxyphenyl)-2-(6-(1-(2-hydroxyethyl)piperidin-3-yl)-4-methoxypyridin-2-yl)-1-methyl-3-oxo-2,3-dihydro-1H-pyrazol-4-yl)-4-(difluoromethoxy)benzamide], the EC50 on human FPR2 is 0.01 µM; at human FPR1, more than 10 µM.

Turning to `COc1cc(F)c(-c2c(NC(=O)c3ccc(OC(F)F)cc3)c(=O)n(-c3cc(C#N)cc(C(F)(F)F)n3)n2C)c(F)c1` [Example 341, N-(2-(4-Cyano-6-(trifluoromethyl)pyridin-2-yl)-5-(2,6-difluoro-4-methoxyphenyl)-1-methyl-3-oxo-2,3-dihydro-1H-pyrazol-4-yl)-4-(difluoromethoxy)benzamide], the values for the EC50 on human FPR2 and at human FPR1 were 0.01 µM and 2.6 µM, respectively.

For `COc1cc(C2CCCN(C)C2)nc(-n2c(=O)c(NC(=O)c3ccc(OC(F)F)cc3)c(-c3c(F)cc(OC)cc3F)n2C)c1` (stereo not drawn) [Example 342, N-(5-(2,6-Difluoro-4-methoxyphenyl)-2-(4-methoxy-6-(1-methylpiperidin-3-yl)pyridin-2-yl)-1-methyl-3-oxo-2,3-dihydro-1H-pyrazol-4-yl)-4-(difluoromethoxy)benzamide], the EC50 is 0.002 µM on human FPR2 and more than 10 µM on human FPR1.

On to `COc1cc(C2CCCN(C)C2)nc(-n2c(=O)c(NC(=O)c3ccc(OC(F)F)cc3)c(-c3c(F)cc(OC)cc3F)n2C)c1` (stereo not drawn) [Example 343, N-(5-(2,6-Difluoro-4-methoxyphenyl)-2-(4-methoxy-6-(1-methylpiperidin-3-yl)pyridin-2-yl)-1-methyl-3-oxo-2,3-dihydro-1H-pyrazol-4-yl)-4-(difluoromethoxy)benzamide], for which the EC50 on human FPR2 was 0.001 µM; at human FPR1, more than 10 µM.

Turning to `COc1cc(OCC2(C)COC2)nc(-n2c(=O)c(NC(=O)c3ccc(OC(F)F)cc3)c(-c3c(F)cc(OC)cc3F)n2C)c1` [Example 344, N-(5-(2,6-Difluoro-4-methoxyphenyl)-2-(4-methoxy-6-((3-methyloxetan-3-yl)methoxy)pyridin-2-yl)-1-methyl-3-oxo-2,3-dihydro-1H-pyrazol-4-yl)-4-(difluoromethoxy)benzamide], the results for the EC50 at human FPR2 and on human FPR1 were 0.002 µM and 2.4 µM, respectively.

For the compound `COc1cc(C2CCOCC2)nc(-n2c(=O)c(NC(=O)c3ccc(OC(F)F)cc3)c(-c3c(F)cc(OC)cc3F)n2C)c1` [Example 345, N-(5-(2,6-Difluoro-4-methoxyphenyl)-2-(4-methoxy-6-(tetrahydro-2H-pyran-4-yl)pyridin-2-yl)-1-methyl-3-oxo-2,3-dihydro-1H-pyrazol-4-yl)-4-(difluoromethoxy)benzamide], the EC50 at human FPR2 was 0.005 µM; at human FPR1, more than 10 µM.

Take `COc1cc(C2CCCNC2)nc(-n2c(=O)c(NC(=O)c3ccc(OC(F)F)cc3)c(-c3c(F)cc(OC)cc3F)n2C)c1` (stereo not drawn) [Example 346, N-(5-(2,6-Difluoro-4-methoxyphenyl)-2-(4-methoxy-6-(piperidin-3-yl)pyridin-2-yl)-1-methyl-3-oxo-2,3-dihydro-1H-pyrazol-4-yl)-4-(difluoromethoxy)benzamide]: the values for the EC50 on human FPR2 and on human FPR1 were 0.005 µM and more than 10 µM, respectively.

Turning to `COc1cc(C2CCCNC2)nc(-n2c(=O)c(NC(=O)c3ccc(OC(F)F)cc3)c(-c3c(F)cc(OC)cc3F)n2C)c1` (stereo not drawn) [Example 347, N-(5-(2,6-Difluoro-4-methoxyphenyl)-2-(4-methoxy-6-(piperidin-3-yl)pyridin-2-yl)-1-methyl-3-oxo-2,3-dihydro-1H-pyrazol-4-yl)-4-(difluoromethoxy)benzamide], the concentration for a half-maximal effect (EC50) at human FPR2 was 0.004 µM; at human FPR1 it was more than 10 µM.

In the case of `COc1cc(F)c(-c2c(NC(=O)c3ccc(OC(F)F)cc3)c(=O)n(-c3cc(OCCO)cc(C(F)(F)F)n3)n2C)c(F)c1` [Example 348, N-(5-(2,6-Difluoro-4-methoxyphenyl)-2-(4-(2-hydroxyethoxy)-6-(trifluoromethyl)pyridin-2-yl)-1-methyl-3-oxo-2,3-dihydro-1H-pyrazol-4-yl)-4-(difluoromethoxy)benzamide], the EC50 on human FPR2 came out at 0.02 µM; on human FPR1, 2.2 µM.

On to `COc1cc(F)c(-c2c(NC(=O)c3ccc(OC(F)F)cc3)c(=O)n(-c3cc(OCC4(C)COC4)cc(C(F)(F)F)n3)n2C)c(F)c1` [Example 349, N-(5-(2,6-Difluoro-4-methoxyphenyl)-1-methyl-2-(4-((3-methyloxetan-3-yl)methoxy)-6-(trifluoromethyl)pyridin-2-yl)-3-oxo-2,3-dihydro-1H-pyrazol-4-yl)-4-(difluoromethoxy)benzamide], for which the EC50 on human FPR2 worked out at 0.022 µM; on human FPR1, 0.094 µM.

On to `COc1cc(OCC2CCCO2)nc(-n2c(=O)c(NC(=O)c3ccc(OC(F)F)cc3)c(-c3c(F)cc(OC)cc3F)n2C)c1` (stereo not drawn) [Example 350, N-(5-(2,6-Difluoro-4-methoxyphenyl)-2-(4-methoxy-6-((tetrahydrofuran-2-yl)methoxy)pyridin-2-yl)-1-methyl-3-oxo-2,3-dihydro-1H-pyrazol-4-yl)-4-(difluoromethoxy)benzamide], for which the EC50 at human FPR2 is 0.009 µM; on human FPR1 it was more than 10 µM.

With `COc1cc(OCC2CCOC2)nc(-n2c(=O)c(NC(=O)c3ccc(OC(F)F)cc3)c(-c3c(F)cc(OC)cc3F)n2C)c1` (stereo not drawn) [Example 351, N-(5-(2,6-Difluoro-4-methoxyphenyl)-2-(4-methoxy-6-((tetrahydrofuran-3-yl)methoxy)pyridin-2-yl)-1-methyl-3-oxo-2,3-dihydro-1H-pyrazol-4-yl)-4-(difluoromethoxy)benzamide], the results for the EC50 on human FPR2 and on human FPR1 were 0.002 µM and more than 10 µM, respectively.

Take `COc1cc(F)c(-c2c(NC(=O)c3ccc(OC(F)F)cc3)c(=O)n(-c3cc(C)cc(OCC4CCOC4)n3)n2C)c(F)c1` (stereo not drawn) [Example 352, N-(5-(2,6-Difluoro-4-methoxyphenyl)-1-methyl-2-(4-methyl-6-((tetrahydrofuran-3-yl)methoxy)pyridin-2-yl)-3-oxo-2,3-dihydro-1H-pyrazol-4-yl)-4-(difluoromethoxy)benzamide]: the half-maximal effective concentration (EC50) is 0.006 µM at human FPR2 and more than 10 µM on human FPR1.

In the case of `COc1cc(F)c(-c2c(NC(=O)c3ccc(OC(F)F)cc3)c(=O)n(-c3cc(C)cc(OCC4(C)COC4)n3)n2C)c(F)c1` [Example 353, N-(5-(2,6-Difluoro-4-methoxyphenyl)-1-methyl-2-(4-methyl-6-((3-methyloxetan-3-yl)methoxy)pyridin-2-yl)-3-oxo-2,3-dihydro-1H-pyrazol-4-yl)-4-(difluoromethoxy)benzamide], the EC50 at human FPR2 was found to be 0.002 µM; at human FPR1, 1.6 µM.

With `COc1cc(N2C[C@H]3C[C@@H]2CN3C)nc(-n2c(=O)c(NC(=O)c3ccc(OC(F)F)cc3)c(-c3c(F)cc(OC)cc3F)n2C)c1` [Example 354, N-(5-(2,6-Difluoro-4-methoxyphenyl)-2-(4-methoxy-6-((1R,4R)-5-methyl-2,5-diazabicyclo[2.2.1]heptan-2-yl)pyridin-2-yl)-1-methyl-3-oxo-2,3-dihydro-1H-pyrazol-4-yl)-4-(difluoromethoxy)benzamide], the EC50 at human FPR2 was 0.002 µM; at human FPR1, more than 10 µM.

Consider `COc1cc(OC2CCOC2)nc(-n2c(=O)c(NC(=O)c3ccc(OC(F)F)cc3)c(-c3c(F)cc(OC)cc3F)n2C)c1` (stereo not drawn) [Example 355, N-(5-(2,6-Difluoro-4-methoxyphenyl)-2-(4-methoxy-6-((tetrahydrofuran-3-yl)oxy)pyridin-2-yl)-1-methyl-3-oxo-2,3-dihydro-1H-pyrazol-4-yl)-4-(difluoromethoxy)benzamide], for which the EC50 is 0.004 µM at human FPR2 and more than 10 µM at human FPR1.
